Measurements from patent US11851428B2, “Activator of TREK (TWIK RElated K+channels) channels” (ONO PHARMACEUTICAL CO., LTD., priority 2016, dated 2023).
Entries after “also recorded” stand apart in the source; their conditions may differ. Read-outs that look alike come from different tables or passages of the source. Blank lines part the entries; values can stand above or below the molecule they belong to.

How the values were obtained:
[1] = target: T1, human TREK-1 (Homo sapiens, UniProt O95069); assay: thallium flux assay (TREK1 activation normalized to BL-1249); format: cell-based
T1 construct: expressed in transfected cells
T1 sequence (O95069 1-426): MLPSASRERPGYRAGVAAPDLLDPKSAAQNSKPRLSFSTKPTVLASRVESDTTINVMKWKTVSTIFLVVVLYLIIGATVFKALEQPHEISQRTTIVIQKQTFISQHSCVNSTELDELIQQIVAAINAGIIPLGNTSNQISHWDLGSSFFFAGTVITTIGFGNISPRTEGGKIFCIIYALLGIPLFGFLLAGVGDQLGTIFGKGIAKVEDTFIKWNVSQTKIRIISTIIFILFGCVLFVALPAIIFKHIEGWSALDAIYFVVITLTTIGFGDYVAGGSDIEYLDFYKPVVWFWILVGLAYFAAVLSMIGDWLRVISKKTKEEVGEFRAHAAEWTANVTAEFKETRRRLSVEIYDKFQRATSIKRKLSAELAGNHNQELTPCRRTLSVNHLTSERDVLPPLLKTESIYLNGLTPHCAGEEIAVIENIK
Method: The term “thallium flux assay” herein refers to a fluorescence-based assay used to monitor the activity of TREK channels. Thallium is a congener of potassium that readily fluxes through the pore of TREK channels. Thallium flux is measured using a commercially available, thallium-sensitive fluorescent dye called Thallos. The detail method is described below.
Method 1 (Thallium Flux Assay);
CHO-K1 cells stably expressing human TREK-1 or HEK293 cells stably expressing human TREK-2 are plated in 384-well plates, cultured overnight, loaded with Thallos dye the following day, treated with test compounds for 10 min, and then treated with thallium stimulus buffer to initiate thallium flux. The change in fluorescence at 25 seconds after thallium addition is normalized to baseline fluorescence (fluorescent intensity at 25 sec after Tl^+ addition)/(average of fluorescent intensity at pre-read).

[2] = system: ICR mice; assay: acetic acid writhing assay; format: in vivo, mouse; conditions: for number of writhes induced by acetic acid: ICR mice, 2 h before acetic acid i.p., counted for 30 min, vs vehicle; for number of writhes induced by acetic acid (FIGURE legend): mouse, p.o., dose not stated in the legend, *p<0.05 vs vehicle
Method: d. Analgesic Effect in Acetic Acid Writhing Assay
ICR mice were pretreated with vehicle (0.5 w/v % methyl cellulose, p.o.) or Example 1-25 compounds (0.3, 1, 3 mg/kg, p.o.) or Example 2 compounds (1, 10, 300 mg/kg, p.o.) or indomethacin (10 mg/kg, p.o.). Compounds were suspended in 0.5 w/v % methyl cellulose and indomethacin was dissolved in 0.7% sodium bicarbonate. All drugs were administered in a volume of 10 mL/kg. Two hours after administration of the disclosed compounds and vehicle, or one hour after administration of indomethacin, the animals were injected with acetic acid (0.7% v/v in saline, 10 mL/kg, i.p.). The number of writhes (characterized by contraction of the abdominal musculature and extension of the limbs) was then counted for 30 min. Analgesic effect was evaluated by comparing the number of writhes between the rest compounds group and the vehicle group.

[3] = concentration of Example compound 10 μM, normalized to 10 μM BL-1249, CHO-K1 cells stably expressing human TREK-1, read-out: TREK1 activation RBL-1249 (%)

Compound: O=C(NCc1ccc(OC(F)(F)F)cc1F)c1ccc2ncnn2c1 [Example 1-25, N-[2-fluoro-4-(trifluoromethoxy)benzyl][1,2,4]triazolo[1,5-a]pyridine-6-carboxamide]
- activation at 10 µM [1, 3]: 82%
- number of writhes induced by acetic acid ([2]; 3 mg/kg p.o., 3 mg/kg): significantly decreased the number of writhes; also recorded: the same degree as indomethacin 10 mg/kg
- number of writhes induced by acetic acid (FIGURE legend) [2]: inhibit the number of writhes induced by acetic acid

Compound: Cc1cc(OC(F)(F)F)ccc1CNC(=O)c1ccc(-n2cncn2)nc1 [Example 2, N-[2-Methyl-4-(trifluoromethoxy)benzyl]-6-(1H-1,2,4-triazol-1-yl)nicotinamide]
- activation at 30 µM ([1]; concentration of Example compound 30 μM, normalized to 10 μM BL-1249, CHO-K1 cells stably expressing human TREK-1, read-out: TREK1 activation RBL-1249 (%)): 20%
- number of writhes induced by acetic acid ([2]; 300 mg/kg p.o., 300 mg/kg): significantly decreased the number of writhes; also recorded: the same degree as indomethacin 10 mg/kg
- number of writhes induced by acetic acid (FIGURE legend) [2]: inhibit the number of writhes induced by acetic acid

Compound: O=C(NCc1ccc(OC(F)(F)F)cc1Cl)c1ccn2nnnc2c1 [Example 9-17]
- TREK1 activation RBL-1249 (%) ([1]; concentration of Example compound 10 μM, normalized to 10 μM BL-1249, CHO-K1 cells stably expressing human TREK-1): 78%

Compound: CS(=O)(=O)Nc1ccc(C(=O)NCc2ccc(Cl)cc2Cl)cc1 [N-(2,4-dichlorobenzyl)-4-[(methylsulfonyl)amino]benzamide]
- activation at 30 µM ([1]; CHO-K1, read-out: TREK1 activation RBL-1249 (%)): 54%

Next, values leading:

- activation at 10 µM [1, 3]: 79%
Compound: Nc1c(C(=O)NCc2ccc(OC(F)(F)F)cc2Cl)cnc2ccnn12 [Example 9-14, 7-amino-N-[2-chloro-4-(trifluoromethoxy)benzyl]pyrazolo[1,5-a]pyrimidine-6-carboxamide]

- activation at 10 µM [1, 3]: 59%
Compound: O=C(NCc1ccc(OC(F)(F)F)cc1Cl)c1ccc(-c2ncc[nH]2)cc1 [Example 9-15, N-[2-chloro-4-(trifluoromethoxy)benzyl]-4-(1H-imidazol-2-yl)benzamide]

- activation at 10 µM [1, 3]: 95%
Compound: O=C(NCc1ccc(OC(F)(F)F)cc1Cl)c1ccc2nnnn2c1 [Example 9-16, N-[2-chloro-4-(trifluoromethoxy)benzyl]tetrazolo[1,5-a]pyridine-6-carboxamide]

- activation at 10 µM [1, 3]: 68%
Compound: Cc1cc2ncc(C(=O)NCc3ccc(OC(F)(F)F)cc3Cl)cn2n1 [Example 9-19, N-[2-chloro-4-(trifluoromethoxy)benzyl]-2-methylpyrazolo[1,5-a]pyrimidine-6-carboxamide]
